Test results taken from ChEMBL document CHEMBL2440042, “Anti-proliferative activity of hydnocarpin, a natural lignan, is associated with the suppression of Wnt/β-catenin signaling pathway in colon cancer cells” (Bioorg Med Chem Lett, 2013).
Active and inactive are the calls of the source. The calls are words filed in the database; no cut-off is given here.

Columns and labels:
SW480 [1] = test: Inhibition of Wnt/beta-catenin signaling pathway in human SW480 cells assessed as increase in phosphorylation of beta-catenin at Ser45 after 12 hrs by Western blotting analysis relative to vehicle-treated control; format: cell-based
SW480 [2] = test: Inhibition of Wnt/beta-catenin signaling pathway in human SW480 cells assessed as CK1-alpha protein expression at 10 uM after 24 hrs by Western blotting analysis relative to vehicle-treated control
SW480 [3] = test: Inhibition of Wnt/beta-catenin signaling pathway in human SW480 cells assessed as GSK3-beta protein expression at 5 uM after 24 hrs by Western blotting analysis relative to vehicle-treated control
SW480 [4] = test: Inhibition of Wnt/beta-catenin signaling pathway in human SW480 cells assessed as dvl2 protein expression at 10 uM after 24 hrs by Western blotting analysis relative to vehicle-treated control
[5] = molecular target: Axin1/beta-catenin (Homo sapiens) (UniProt P35222+O15169); test: Increase in axin1-beta-catenin interaction in human SW480 cells at 5 to 10 uM after 24 hrs by immunoprecipitation; format: cell-based
SW480 [6] = test: Inhibition of Wnt/beta-catenin signaling pathway in human SW480 cells assessed as Axin1 protein expression at 5 uM after 24 hrs by Immunoblotting analysis relative to vehicle-treated control
SW480 [7] = test: Inhibition of Wnt/beta-catenin signaling pathway in human SW480 cells assessed as Axin1 protein expression at 20 uM after 24 hrs by Western blotting analysis relative to vehicle-treated control
SW480 [8] = test: Inhibition of Wnt/beta-catenin signaling pathway in human SW480 cells assessed as beta-catenin protein expression at 10 uM after 24 hrs by Immunoblotting analysis relative to vehicle-treated control
SW480 [9] = test: Inhibition of Wnt/beta-catenin signaling pathway in human SW480 cells assessed as CK1-alpha protein expression at 5 uM after 12 hrs by Western blotting analysis relative to vehicle-treated control
SW480 [10] = test: Inhibition of Wnt/beta-catenin signaling pathway in human SW480 cells assessed as dvl2 protein expression at 20 uM after 12 hrs by Western blotting analysis relative to vehicle-treated control
SW480 [11] = test: Inhibition of Wnt/beta-catenin signaling pathway in human SW480 cells assessed as dvl1 protein expression at 20 uM after 12 hrs by Western blotting analysis relative to vehicle-treated control
SW480 [12] = test: Inhibition of Wnt/beta-catenin signaling pathway in human SW480 cells assessed as dvl3 protein expression at 10 uM after 24 hrs by Western blotting analysis relative to vehicle-treated control
SW480 [13] = test: Inhibition of Wnt/beta-catenin signaling pathway in human SW480 cells assessed as Axin1 protein expression at 10 uM after 24 hrs by Western blotting analysis relative to vehicle-treated control
SW480 [14] = test: Inhibition of Wnt/beta-catenin signaling pathway in human SW480 cells assessed as increase in phosphorylation of beta-catenin at Ser45 after 24 hrs by Western blotting analysis relative to vehicle-treated control; format: cell-based
SW480 [15] = test: Inhibition of Wnt/beta-catenin signaling pathway in human SW480 cells assessed as dvl2 protein expression at 10 uM after 12 hrs by Western blotting analysis relative to vehicle-treated control
SW480 [16] = test: Inhibition of Wnt/beta-catenin signaling pathway in human SW480 cells assessed as Axin1 protein expression at 20 uM after 12 hrs by Western blotting analysis relative to vehicle-treated control
SW480 [17] = test: Inhibition of Wnt/beta-catenin signaling pathway in human SW480 cells assessed as phosphorylated (S45) beta-catenin protein expression at 10 uM after 24 hrs by Western blotting analysis relative to vehicle-treated control
SW480 [18] = test: Inhibition of Wnt/beta-catenin signaling pathway in human SW480 cells assessed as beta-catenin protein expression at 20 uM after 12 hrs by Western blotting analysis relative to vehicle-treated control
HEK293 [19] = test: Inhibition of Wnt/beta-catenin signaling pathway in human HEK293 cells after 24 hrs by dual luciferase reporter gene assay relative to vehicle-treated control; format: cell-based
SW480 [20] = test: Inhibition of Wnt/beta-catenin signaling pathway in human SW480 cells assessed as beta-catenin protein expression at 5 uM after 24 hrs by Immunoblotting analysis relative to vehicle-treated control
SW480 [21] = test: Inhibition of Wnt/beta-catenin signaling pathway in human SW480 cells after 24 hrs by FOPflash luciferase reporter gene assay relative to vehicle-treated control; format: cell-based
SW480 [22] = test: Inhibition of Wnt/beta-catenin signaling pathway in human SW480 cells assessed as Axin1 protein expression at 5 uM after 24 hrs by Western blotting analysis relative to vehicle-treated control
SW480 [23] = test: Inhibition of Wnt/beta-catenin signaling pathway in human SW480 cells assessed as Axin2 protein expression at 5 uM after 24 hrs by Immunoblotting analysis relative to vehicle-treated control
SW480 [24] = test: Inhibition of Wnt/beta-catenin signaling pathway in human SW480 cells assessed as phosphorylated (S45) beta-catenin protein expression at 5 uM after 24 hrs by Western blotting analysis relative to vehicle-treated control
SW480 [25] = test: Inhibition of Wnt/beta-catenin signaling pathway in human SW480 cells assessed as dvl2 protein expression at 20 uM after 24 hrs by Western blotting analysis relative to vehicle-treated control
SW480 [26] = test: Inhibition of Wnt/beta-catenin signaling pathway in human SW480 cells assessed as Axin1 protein expression at 10 uM after 24 hrs by Immunoblotting analysis relative to vehicle-treated control
HEK293 [27] = test: Inhibition of Wnt/beta-catenin signaling pathway in human HEK293 cells at 20 uM after 24 hrs by dual luciferase reporter gene assay relative to vehicle-treated control; conditions: HEK293, 24 h
SW480 [28] = test: Inhibition of Wnt/beta-catenin signaling pathway in human SW480 cells assessed as dvl1 protein expression at 10 uM after 24 hrs by Western blotting analysis relative to vehicle-treated control
SW480 [29] = test: Inhibition of Wnt/beta-catenin signaling pathway in human SW480 cells assessed as beta-catenin protein expression at 10 uM after 12 hrs by Western blotting analysis relative to vehicle-treated control
SW480 [30] = test: Inhibition of Wnt/beta-catenin signaling pathway in human SW480 cells assessed as Axin2 protein expression at 5 uM after 24 hrs by Western blotting analysis relative to vehicle-treated control
SW480 [31] = test: Inhibition of Wnt/beta-catenin signaling pathway in human SW480 cells assessed as increase in phosphorylation of beta-catenin at Ser45 at 20 uM after 12 hrs by Western blotting analysis relative to vehicle-treated control
SW480 [32] = test: Inhibition of Wnt/beta-catenin signaling pathway in human SW480 cells assessed as Axin2 protein expression at 20 uM after 12 hrs by Western blotting analysis relative to vehicle-treated control
SW480 [33] = test: Effect on total beta-catenin protein level in human SW480 cells at 5 to 20 uM after 12 to 24 hrs by Western blotting analysis relative to vehicle-treated control; format: functional, cell-based
SW480 [34] = test: Inhibition of Wnt/beta-catenin signaling pathway in human SW480 cells assessed as beta-catenin protein expression at 10 uM after 24 hrs by Western blotting analysis relative to vehicle-treated control

For `COc1cc([C@H]2Oc3ccc(-c4cc(=O)c5c(O)cc(O)cc5o4)cc3O[C@@H]2CO)ccc1O` (relative stereo), the inhibition (SW480 [1]) was “Dose-dependent effect”, the “fold change (FC)” value (SW480 [2]) was 1.2 and the “fold change (FC)” value (SW480 [3]) was 1.1. The “fold change (FC)” value (SW480 [4]) was 1.2, the Activity [5] was “Active” and the “fold change (FC)” value (SW480 [6]) was 1.4. For the same molecule, the “fold change (FC)” value (SW480 [7]) was 4.2, the “fold change (FC)” value (SW480 [8]) was 0.7 and the “fold change (FC)” value (SW480 [9]) was 0.9. The “fold change (FC)” value (SW480 [10]) was 0.9, the “fold change (FC)” value (SW480 [11]) was 1.1 and the “fold change (FC)” value (SW480 [12]) was 1. The “fold change (FC)” value (SW480 [13]) was 3.5, the inhibition (SW480 [14]) was “Dose-dependent effect” and the “fold change (FC)” value (SW480 [15]) was 1. The “fold change (FC)” value (SW480 [16]) was 2.7, the “fold change (FC)” value (SW480 [17]) was 2.1 and the “fold change (FC)” value (SW480 [18]) was 0.6. The inhibition (HEK293 [19]) was “Dose-dependent effect”, the “fold change (FC)” value (SW480 [20]) was 0.8 and the inhibition (SW480 [21]) was “inactive”. For the same molecule, the “fold change (FC)” value (SW480 [22]) was 1.7, the “fold change (FC)” value (SW480 [23]) was 1 and the “fold change (FC)” value (SW480 [24]) was 1.4. For the same molecule, the “fold change (FC)” value (SW480 [25]) was 1.2, the “fold change (FC)” value (SW480 [26]) was 1.5 and the inhibition at 20 µM (HEK293 [27]) was 61.6%. For the same molecule, the “fold change (FC)” value (SW480 [28]) was 1, the “fold change (FC)” value (SW480 [29]) was 0.7 and the “fold change (FC)” value (SW480 [30]) was 1.8. For the same molecule, the “fold change (FC)” value (SW480 [31]) was 4.9, the “fold change (FC)” value (SW480 [32]) was 6.5 and the Activity (SW480 [33]) was “inactive”. For the same molecule, the “fold change (FC)” value (SW480 [34]) was 0.8.
